Assay results taken from patent publication US9133224B2, “Macrocyclic kinase inhibitors” (OSI Pharmaceuticals, LLC, priority 2010, dated 2015).
Where two headings read alike, the source gives them in different places.

Key:
[1] = molecular target: T1, GST-tagged full-length FAK enzyme (PTK2) (Homo sapiens, UniProt Q05397); assay: Biochemical Omnia Assay (FAK)
T1 construct: GST-tagged full-length FAK enzyme (PTK2, Invitrogen PV4085); GST; purchased Invitrogen PV4085
Experimental: Biochemical Omnia Assay Protocol
The Omnia Assay (Invitrogen) has been optimized for GST-tagged full-length FAK enzyme (PTK2, Invitrogen PV4085).
All compound concentrations were assayed in duplicate. Initial compound dilutions were prepared at 100× concentration in 100% DMSO from a 10 mM stock solution. Compounds were further diluted 1:25 in assay buffer resulting in a 4× concentrated solution.
In running the assay, 5 μL of the above 4× concentrated compound solution (or 4% DMSO for positive controls) was added to the assay plate followed by 5 μL of a solution containing peptide (40 μM) and ATP (200 μM) in assay buffer. The reaction was initiated by the addition of 10 μL of FAK (50 nM) in assay buffer, or assay buffer alone for negative controls. The increase in fluorescence due to peptide phosphorylation was monitored continuously as a function of time using a Spectramax M5 plate reader (Molecular Devices) equipped with SoftMax Pro 5.2 software.
IC50 values were determined from the slopes of the linear progress curves by non-linear curve-fitting using GraphPad Prism 5 (GraphPad Software, Inc.).

FAK = molecular target: T2, FAK (Homo sapiens, UniProt Q05397); assay: Cell-based capture ELISA for inhibition of FAK autophosphorylation [pY397] in U87MG cells
T2 construct: endogenous in cells; host or cells: U87MG glioblastoma cells (ATCC HTB-14)
Experimental: Cell-Based Assays for Inhibition of FAK Autophosphorylation: MiaPaCa2 and U87MG
The ability of compounds to inhibit FAK autophosphorylation was determined in a cell-based capture ELISA assay using U87MG glioblastoma cells (ATCC, Cat # HTB-14) and the FAK [pY397]ELISA kit from Invitrogen (KHO0441). The assay determines the ability of compounds to block endogenous autophosphorylation of FAK stimulated by fibronectin. Cells plated on fibronectin coated 96-well plate were incubated with compounds at various concentrations in the complete growth medium for 2 h. Cell lysates were then prepared and FAK protein was captured onto a FAK antibody-coated 96-well ELISA plate. The phosphotyrosine content of FAK protein was then monitored by quantitation of degree of binding of an antibody that recognizes only the phosphorylated FAK at Y397 within the captured protein.
Reagents Provided in Biosource FAK [pY397]
Cultures of U87MG cells growing in MEM (Earles) containing non-essential amino acids, sodium pyruvate (1 mM), […] (1%) and 10% fetal bovine serum were detached by trypsin-EDTA and suspended in cell growth medium. Cells were then plated onto fibronectin (600 ng/well)-coated 96-well flat bottom plates at 1.7×10^4 cells per well in 60 uL cell growth medium and incubated overnight at 37° C. in a CO2 incubator.
Compound dilutions were prepared from 10 mM DMSO stocks by dilution in cell growth medium, the final concentration of DMSO in the assay being 0.6%. […] The cells were then incubated with compounds at 37° C. for 2 h. The medium was removed by aspiration and cells were lysed by addition of 20 uL of ice-cold cell lysis buffer per well. The plates were kept on ice for 20 min and 50 uL of standard diluent was added to each well. 50 uL of cell lysate from each well was transferred to respective wells in an assay plate and 50 uL of detection antibody was added to all wells except H1-H6 which were no antibody control wells. Capture assay plates were incubated overnight in a cold room.
Following incubation of the cell lysates and detection antibodies in the ELISA plate, the wells were washed 4 times with 120 uL of wash buffer (1×), then 100 uL of diluted HRP conjugated antibody (1:100 dil in diluent) was added to each well, and the plate was incubated at RT for 30 min. The wells were then washed for 4 times with 120 uL of wash buffer (1×) and 100 uL of chromogen was added to each well and incubated in the dark at RT for 5-10 min. 100 uL of stop solution was added to each well and the absorbance measured at 450 nm, 0.1 s.
Comparison of the assay signals obtained in the presence of compound with those of positive and negative controls (cells with no compound and no detection antibody being added), allows degree of inhibition of phospho-FAK [Y397] to be determined over a range of compound concentrations. […] The assay as described above was modified to determine the effect of inclusion of 50% (v/v) mouse or human plasma. In this assay, the compound plate was prepared as 2× concentration in 100 uL of 100% mouse or human plasma, and 60 uL of this was added to 60 uL of culture medium and incubated at 37° C. incubator for 2 h. The rest of the assay was carried out as described above.

[2] = 50% (v/v) human plasma, mean IC50, read-out: FAK Activity Mechanistic (U87MG) HP
[3] = no plasma present, mean IC50, read-out: FAK Activity Mechanistic (U87MG) NP
[4] = mean IC50, [ATP] = 50uM, read-out: FAK Activity Biochemical OMNIA, [ATP] = 50uM
[5] = 50% (v/v) mouse plasma, mean IC50, read-out: FAK Activity Mechanistic (U87MG) MP

T2 sequence (Q05397 whole entry): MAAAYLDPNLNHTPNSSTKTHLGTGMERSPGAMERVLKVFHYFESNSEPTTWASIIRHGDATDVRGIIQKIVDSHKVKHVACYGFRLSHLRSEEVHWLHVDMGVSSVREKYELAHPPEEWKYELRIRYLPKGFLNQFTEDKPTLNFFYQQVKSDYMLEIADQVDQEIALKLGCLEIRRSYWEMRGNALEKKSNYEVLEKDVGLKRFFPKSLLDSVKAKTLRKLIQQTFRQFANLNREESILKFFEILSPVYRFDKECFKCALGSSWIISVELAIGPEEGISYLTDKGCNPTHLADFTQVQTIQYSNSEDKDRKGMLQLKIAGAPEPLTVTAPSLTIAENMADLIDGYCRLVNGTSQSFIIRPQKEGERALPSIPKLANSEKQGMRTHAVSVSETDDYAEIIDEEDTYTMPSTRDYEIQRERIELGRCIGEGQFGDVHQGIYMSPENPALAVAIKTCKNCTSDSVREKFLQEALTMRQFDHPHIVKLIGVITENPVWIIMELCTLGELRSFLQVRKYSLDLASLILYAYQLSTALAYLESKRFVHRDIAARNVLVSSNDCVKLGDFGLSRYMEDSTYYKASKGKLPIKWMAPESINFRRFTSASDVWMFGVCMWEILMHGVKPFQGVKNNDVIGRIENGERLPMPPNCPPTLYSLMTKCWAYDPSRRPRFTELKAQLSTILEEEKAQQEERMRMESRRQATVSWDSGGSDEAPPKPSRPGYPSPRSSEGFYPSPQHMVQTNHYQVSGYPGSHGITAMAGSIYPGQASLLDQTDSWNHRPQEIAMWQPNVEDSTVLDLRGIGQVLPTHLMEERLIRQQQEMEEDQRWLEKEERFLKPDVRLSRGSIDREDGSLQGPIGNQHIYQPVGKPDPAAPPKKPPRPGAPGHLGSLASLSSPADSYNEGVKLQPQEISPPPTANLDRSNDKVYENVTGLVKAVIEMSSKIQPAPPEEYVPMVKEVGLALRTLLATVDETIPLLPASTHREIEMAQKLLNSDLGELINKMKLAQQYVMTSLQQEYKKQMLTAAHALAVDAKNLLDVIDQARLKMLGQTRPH
T1 sequence (Q05397 whole entry): as above

Row | Compound | IC50 [1] [nM] | IC50 (FAK; [2]) [nM] | IC50 (FAK; [3]) [nM] | IC50 [1, 4] [nM] | IC50 (FAK; [5]) [nM]
1 | CCNC(=O)c1cc2ccc1Nc1nc(ncc1C(F)(F)F)Nc1ccc(cc1)CP(=O)(OCC)OCCCn1cc-2cn1 (racemic) [Example 10] | < 400 | > 4000 | 400 to 4000 |  | 
2 | CCOP1(=O)Cc2ccc(cc2)Nc2ncc(C(F)(F)F)c(n2)Nc2ccc(cc2C(=O)N(C)C)-c2cnn(c2)CCCO1 (racemic) [Example 11] | < 400 | 400 to 4000 | < 400 |  | 
3 | CCOP1(=O)Cc2ccc(c(OC)c2)Nc2ncc(C(F)(F)F)c(n2)Nc2ccc(cc2C(=O)N(C)C)-c2cnn(c2)CCCO1 (racemic) [Example 12] |  | 400 to 4000 | < 400 | < 400 | 
4 | CCOP1(=O)Cc2ccc(cc2)Nc2ncc(C(F)(F)F)c(n2)Nc2ccc(nc2C(=O)NC)-c2cnn(c2)CCCO1 (racemic) [Example 13] |  | < 400 | < 400 | < 400 | 
5 | CCOP1(=O)Cc2ccc(c(OC)c2)Nc2ncc(C(F)(F)F)c(n2)Nc2ccc(cc2C(=O)NC)-c2cnn(c2)CCCCO1 (racemic) [Example 14] |  | < 400 | < 400 | < 400 | 
6 | CCOP1(=O)Cc2ccc(c(OC)c2)Nc2ncc(C(F)(F)F)c(n2)Nc2ccc(nc2C(=O)NC)-c2cnn(c2)CCCCO1 (racemic) [Example 15] | < 400 | < 400 | < 400 |  | 
7 | CCOP1(=O)Cc2ccc(c(OC)c2)Nc2ncc(C(F)(F)F)c(n2)Nc2ccc(c3c2C(=O)N(C)C3)-c2cnn(c2)CCCCO1 (racemic) [Example 17] |  | < 400 | < 400 | < 400 | 
8 | CCOP1(=O)Cc2ccc(c(F)c2)Nc2ncc(C(F)(F)F)c(n2)Nc2ccc(nc2C(=O)NC)-c2cnn(c2)CCCO1 (racemic) [Example 22] | < 400 | < 400 | 400 to 4000 |  | 
9 | CCOP1(=O)Cc2ccc(c(F)c2)Nc2ncc(C(F)(F)F)c(n2)Nc2ccc(nc2C(=O)NC)-c2cnn(c2)CCCCO1 (racemic) [Example 23] |  | < 400 | < 400 | < 400 | 
10 | CCOP1(=O)Cc2ccc(c(Cl)c2)Nc2ncc(C(F)(F)F)c(n2)Nc2ccc(nc2C(=O)NC)-c2cnn(c2)CCCO1 (racemic) [Example 24] |  | < 400 | 400 to 4000 | < 400 | 
11 | CCOP1(=O)Cc2ccc(c(Cl)c2)Nc2ncc(C(F)(F)F)c(n2)Nc2ccc(nc2C(=O)NC)-c2cnn(c2)CCCCO1 (racemic) [Example 25] | < 400 | < 400 | < 400 |  | 
12 | CCOP1(=O)Cc2ccc(c(OC)c2)Nc2ncc(C(F)(F)F)c(n2)Nc2ccc(cc2C(=O)NOC)-c2cnn(c2)CCCO1 (racemic) [Example 26] |  | < 400 | < 400 | < 400 | 400 to 4000
13 | CCOP1(=O)Cc2ccc(c(OC)c2)Nc2ncc(C(F)(F)F)c(n2)Nc2ccc(c(F)c2C(=O)NC)-c2cnn(c2)CCCO1 (racemic) [Example 27] | < 400 |  | < 400 |  | 400 to 4000
14 | CCOP1(=O)Cc2ccc(c(OC)c2)Nc2ncc(C(F)(F)F)c(n2)Nc2ccc(c(Cl)c2C(=O)NC)-c2cnn(c2)CCCO1 (racemic) [Example 28] | < 400 |  | 400 to 4000 |  | > 4000
